Results as given in ChEMBL document CHEMBL3272192, “Thyroxine analogues. 23. Quantitative structure-activity correlation studies of in vivo and in vitro thyromimetic activities” (1977).

Columns and labels:
[1] = tested on: Rattus norvegicus; assay: In vivo antigoiter activity in rat; type: functional
[2] = species on record: Rattus norvegicus; assay: Displacement of radiolabelled L-T3 from thyroid hormone receptor in intact rat hepatic nuclei relative to T3
[3] = target: T1, Thyroxine-binding globulin (Homo sapiens) (UniProt P05543); assay: Binding affinity to thyroxine binding globulin (unknown origin) relative to T4
T1 sequence (whole entry): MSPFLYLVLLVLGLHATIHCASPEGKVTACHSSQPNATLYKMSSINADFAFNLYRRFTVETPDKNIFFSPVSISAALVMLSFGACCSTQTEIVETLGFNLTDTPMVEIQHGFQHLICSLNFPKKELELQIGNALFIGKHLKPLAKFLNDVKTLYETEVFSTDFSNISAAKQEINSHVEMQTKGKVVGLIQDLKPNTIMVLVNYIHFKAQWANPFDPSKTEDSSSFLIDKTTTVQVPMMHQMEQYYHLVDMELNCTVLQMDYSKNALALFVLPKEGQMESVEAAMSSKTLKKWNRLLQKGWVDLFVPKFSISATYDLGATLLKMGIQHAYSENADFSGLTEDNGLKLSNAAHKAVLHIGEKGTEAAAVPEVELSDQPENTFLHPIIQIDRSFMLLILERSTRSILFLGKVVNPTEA

Structure (SMILES)	Activity [1]	log(%) [1]	RBA [2]	log(%) [2]	RBA [3]	log(%) [3]
NC(Cc1cc(I)c(Oc2ccc(O)c(-c3ccccc3)c2)c(I)c1)C(=O)O (centres undefined)	2.03%	0.308	2%	0.301	0.04%	-1.4
CC(C)c1cc(Oc2c(I)cc(CC(N)C(=O)O)cc2I)ccc1O (centres undefined)	142.1%	2.153	100%	2	3.53%	0.548
CCc1cc(Oc2c(I)cc(CC(N)C(=O)O)cc2I)ccc1O (centres undefined)	40.8%	1.611	21%	1.32	1.59%	0.201
NC(Cc1cc(I)c(Oc2cc(I)c(O)c(I)c2)c(I)c1)C(=O)O (centres undefined) [THYROXINE]	18.1%	1.258	12.5%	1.1	100%	2
